10 compounds from US20070281922A1, “1-Sulfonylindazolylamine and - amide derivatives as 5-hydroxytryptamine-6 ligands” (Wyeth, priority 2006, published 2007) can be followed below.

Where a name gives a salt, the structure may show the parent alone.

This experiment deals with T1, human cloned 5-HT6 receptors (Homo sapiens, UniProt P50406).
T1 construct: expressed in transfected cells; host or cells: HeLa cells
T1 sequence (P50406 whole entry): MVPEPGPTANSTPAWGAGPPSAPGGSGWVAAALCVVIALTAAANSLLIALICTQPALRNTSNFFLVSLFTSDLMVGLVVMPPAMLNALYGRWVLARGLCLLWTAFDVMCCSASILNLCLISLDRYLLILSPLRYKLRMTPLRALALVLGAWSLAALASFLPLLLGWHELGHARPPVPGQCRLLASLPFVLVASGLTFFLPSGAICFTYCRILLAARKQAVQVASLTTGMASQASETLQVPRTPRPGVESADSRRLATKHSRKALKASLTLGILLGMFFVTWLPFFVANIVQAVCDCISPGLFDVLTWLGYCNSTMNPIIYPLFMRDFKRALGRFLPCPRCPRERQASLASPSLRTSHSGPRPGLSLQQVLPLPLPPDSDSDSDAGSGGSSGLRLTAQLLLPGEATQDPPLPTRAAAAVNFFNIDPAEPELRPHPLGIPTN
Put plainly: 5-HT6 binding affinity, [3H]-LSD displacement on membranes of Hela cells expressing human cloned 5-HT6 receptors. Conditions: [3H]-LSD 3.0 nM, Hela cell membranes, 120 minutes at room temperature. As to the method:
The affinity of test compounds for the serotonin 5-HT6 receptor was evaluated in the following manner. Cultured Hela cells expressing human cloned 5-HT6 receptors were harvested and centrifuged at low speed (1,000×g) for 10.0 minutes to remove the culture media. The harvested cells were suspended in half volume of fresh physiological phosphate buffered saline solution and recentrifuged at the same speed. This operation was repeated. The collected cells were then homogenized in ten volumes of 50 mM Tris.HCl (pH 7.4) and 0.5 mM EDTA. The homogenate was centrifuged at 40,000×g for 30.0 min and the precipitate was collected. The obtained pellet was resuspended in 10 volumes of Tris.HCl buffer and recentrifuged at the same speed. The final pellet was suspended in a small volume of Tris.HCl buffer and the tissue protein content was determined in aliquots of 10-25 μl volumes. Bovine Serum Albumin was used as the standard in the protein determination according to the method described in Lowry et al., J. Biol. Chem., 193: 265 (1951).
The volume of the suspended cell membranes was adjusted to give a tissue protein concentration of 1.0 mg/ml of suspension. The prepared membrane suspension (10 times concentrated) was aliquoted in 1.0 ml volumes and stored at −70° C. until used in subsequent binding experiments.
Binding experiments were performed in a 96 well microtiter plate format, in a total volume of 200 μl. […] The test compounds were added in 20.0 μl volume.
The reaction was allowed to proceed in the dark for 120 minutes at room temperature, at which time, the bound ligand-receptor complex was filtered off on a 96 well unifilter with a Packard Filtermate® 196 Harvester. The bound complex caught on the filter disk was allowed to air dry and the radioactivity is measured in a Packard TopCount® equipped with six photomultiplier detectors, after the addition of 40.0 μl Microscint®-20 scintillant to each shallow well. The unifilter plate was heat-sealed and counted in a PackardTopCount® with a tritium efficiency of 31.0%.
Binding in the presence of varying concentrations of test compound was expressed as a percentage of specific binding in the absence of test compound. The results were plotted as log % bound versus log concentration of test compound. […] A linear regression line of data points was plotted, from which the IC50 value is determined and the Ki value is determined based upon the following equation: […]
where L was the concentration of the radioactive ligand used and KD is the dissociation constant of the ligand for the receptor, both expressed in nM.
Broadly, the Ki is the equilibrium dissociation constant of an inhibitor or competing ligand from its target. Higher therefore signals weaker binding. In the case of `O=S(=O)(c1cccc2ccccc12)n1ncc2ccc(NCC3CCNCC3)cc21` [Example 14, [1-(Naphthalene-1-sulfonyl)-1H-indazol-6-yl]-piperidin-4-ylmethyl-amine dihydrochloride], the Ki came to 18.4 nM.

The compound `NCCC(=O)Nc1ccc2c(cnn2S(=O)(=O)c2cccc3ccccc23)c1` [Example 6] returned a Ki of 49.5 nM. Against the preceding compound, the Ki is about 2.7-fold higher.

On to `CNCCC(=O)Nc1ccc2cnn(S(=O)(=O)c3cccc4ccccc34)c2c1` [Example 7], for which the affinity corresponds to a Ki of 1.2 nM.

As for `CN(C)CCC(=O)Nc1ccc2cnn(S(=O)(=O)c3cccc4ccccc34)c2c1` [Example 10], the affinity corresponds to a Ki of 1.8 nM.

As for `NCCC(=O)Nc1ccc2cnn(S(=O)(=O)c3cccc4ccccc34)c2c1` [Example 4, N^1-[1-(1-naphthylsulfonyl-1-H-indazol-6-yl]beta-alaninamide Hydrochloride], the affinity corresponds to a Ki of 0.5 nM.

Regarding `NCCC(=O)Nc1cccc2c1cnn2S(=O)(=O)c1cccc2ccccc12` [Example 5], affinity was put at a Ki of 7.9 nM. Against the preceding compound, the Ki is about 16-fold higher.

`CCN(CC)CCC(=O)Nc1ccc2cnn(S(=O)(=O)c3cccc4ccccc34)c2c1` [Example 11] registered an inhibition constant (Ki) of 2.1 nM.

As for `O=C(Nc1ccc2cnn(S(=O)(=O)c3cccc4ccccc34)c2c1)C1CCNCC1` [Example 8], the affinity, expressed as Ki, was 2.3 nM. This Ki and that of the compound before are within 1.5-fold of each other.

Compound `O=C(Nc1ccc2cnn(S(=O)(=O)c3cccc4ccccc34)c2c1)C1CCCNC1` (stereo not shown) [Example 9] registered a Ki of 3.4 nM.

`O=C(CCN1CCCCC1)Nc1ccc2cnn(S(=O)(=O)c3cccc4ccccc34)c2c1` [Example 12]: the Ki was determined as 15 nM.
